Read-outs that look alike come from different tables or passages of the source. One block for each molecule: values may come before it.
Key:
MCF-7 = experiment: MTT cytotoxicity assay, MCF-7; format: cell-based; conditions: for IC50: Homo sapiens, MCF7, 72 h, read-out: IC50 ± SD, MCF-7; for Selectivity index, MCF-7: IC50 MRC-5 / IC50 MCF-7
A2780 = experiment: MTT cytotoxicity assay, A2780; format: cell-based; conditions: for IC50: Homo sapiens, A2780, 72 h, read-out: IC50 ± SD, A2780; for Selectivity index, A2780: IC50 MRC-5 / IC50 A2780
HT29 = experiment: MTT cytotoxicity assay, HT29; format: cell-based; conditions: for IC50: Homo sapiens, HT-29, 72 h, read-out: IC50 ± SD, HT29; for Selectivity index, HT29: IC50 MRC-5 / IC50 HT29
[1] = tested on: normal human foetal lung fibroblast (MRC-5); experiment: MTT cytotoxicity assay, normal MRC-5 cells; format: cell-based; conditions: MRC5, 72 h, read-out: IC50 (µM ± SD) MRC-5
[2] = tested on: MCF-7, A2780, and HT29 cell lines; experiment: MTT cytotoxicity assay, three cancer cell lines taken together; format: cell-based
MCF-7 cells [3] = experiment: Cell cycle analysis; format: cell-based; conditions: for effect on cell cycle: MCF-7, 24 h, 1, 5, 10 µM; for number of cells in the G1 cell-cycle phase: MCF-7, 24 h, highest increase, concentration not given
CDK-2 = CDK-2 (Homo sapiens, UniProt P24941); experiment: CDK-2 inhibition, ADP-Glo kinase assay; format: biochemical
MCF-7 cells [4] = experiment: Annexin V-FITC/PI staining apoptosis assay; format: cell-based; conditions: MCF-7, 24 h, control 0%
[5] = 72 h, read-out: IC50, range over the three cancer cell lines

SMILES: COc1ccc(NC(=O)Nc2c(C#N)c3n(c2C(=O)Nc2ccccc2)CCC3)cc1 [Compound 17a, 7-Cyano-6-(3-(4-methoxyphenyl)ureido)-N-phenyl-2,3-dihydro-1H-pyrrolizine-5-carboxamide]
IC50 (MCF-7): 900 ± 110 nM
Selectivity index, MCF-7 (MCF-7): 2.56
IC50 (A2780): 440 ± 30 nM
Selectivity index, A2780 (A2780): 5.23
IC50 (HT29): 5290 ± 1510 nM
Selectivity index, HT29 (HT29): 0.43
IC50 [1]: 2.3 ± 0.15 µM
IC50 ([2]; read-out: Average IC50): 2210 nM

SMILES: CCCCCCNC(=O)Nc1c(C#N)c2n(c1C(=O)Nc1ccccc1)CCC2 [Compound 16a, 7-Cyano-6-(3-hexylureido)-N-phenyl-2,3-dihydro-1H-pyrrolizine-5-carboxamide]
IC50 (MCF-7): 590 ± 10 nM
Selectivity index, MCF-7 (MCF-7): 20.10
IC50 (A2780): 350 ± 180 nM
Selectivity index, A2780 (A2780): 33.89
IC50 (HT29): 850 ± 70 nM
Selectivity index, HT29 (HT29): 13.95
IC50 [1]: 11.9 ± 0.87 µM
IC50 [2, 5]: 350 to 850 nM
Selectivity index, range over the three cell lines ([2]; IC50 MRC-5 / IC50 cancer cell line): 13.95–33.89
IC50 ([2]; read-out: Average IC50): 600 nM

SMILES: Cc1ccc(NC(=O)c2c(NC(=S)Nc3cccc4ccccc34)c(C#N)c3n2CCC3)cc1 [Compound 20b, 7-Cyano-6-(3-(naphthalen-1-yl)thioureido)-N-(p-tolyl)-2,3-dihydro-1H-pyrrolizine-5-carboxamide]
IC50 (MCF-7): 4970 ± 420 nM
Selectivity index, MCF-7 (MCF-7): 0.40
IC50 (A2780): 2040 ± 950 nM
Selectivity index, A2780 (A2780): 0.98
IC50 (HT29): 3830 ± 580 nM
Selectivity index, HT29 (HT29): 0.52
IC50 [1]: 2 ± 0.75 µM
IC50 ([2]; read-out: Average IC50): 3610 nM

SMILES: Cc1ccc(NC(=O)c2c(NC(=O)Nc3cccc4ccccc34)c(C#N)c3n2CCC3)cc1 [Compound 19b, 7-Cyano-6-(3-(naphthalen-1-yl)ureido)-N-(p-tolyl)-2,3-dihydro-1H-pyrrolizine-5-carboxamide]
IC50 (MCF-7): 440 ± 90 nM
Selectivity index, MCF-7 (MCF-7): 3.50
IC50 (A2780): 5390 ± 1130 nM
Selectivity index, A2780 (A2780): 0.29
IC50 (HT29): 680 ± 140 nM
Selectivity index, HT29 (HT29): 2.26
IC50 [1]: 1.54 ± 0.2 µM
IC50 ([2]; read-out: Average IC50): 2170 nM

SMILES: COc1ccc(NC(=O)Nc2c(C#N)c3n(c2C(=O)Nc2ccc(Cl)cc2)CCC3)cc1 [Compound 17c, N-(4-Chlorophenyl)-7-cyano-6-(3-(4-methoxyphenyl)ureido)-2,3-dihydro-1H-pyrrolizine-5-carboxamide]
IC50 (MCF-7): 3360 ± 830 nM
Selectivity index, MCF-7 (MCF-7): 1.13
IC50 (A2780): 540 ± 20 nM
Selectivity index, A2780 (A2780): 7.04
IC50 (HT29): 420 ± 160 nM
Selectivity index, HT29 (HT29): 9.05
IC50 [1]: 3.8 ± 0.25 µM
IC50 ([2]; read-out: Average IC50): 1440 nM

SMILES: N#Cc1c(NC(=O)Nc2ccc(F)cc2)c(C(=O)Nc2ccccc2)n2c1CCC2 [Compound 18a, 7-Cyano-6-(3-(4-fluorophenyl)ureido)-N-phenyl-2,3-dihydro-1H-pyrrolizine-5-carboxamide]
IC50 (MCF-7): 10760 ± 70 nM
Selectivity index, MCF-7 (MCF-7): 0.99
IC50 (A2780): 10600 ± 2830 nM
Selectivity index, A2780 (A2780): 1.01
IC50 (HT29): 9130 ± 850 nM
Selectivity index, HT29 (HT29): 1.17
IC50 [1]: 10.7 ± 0.61 µM
IC50 ([2]; read-out: Average IC50): 10200 nM

SMILES: CCCCCCNC(=O)Nc1c(C#N)c2n(c1C(=O)Nc1ccc(C)cc1)CCC2 [Compound 16b, 7-Cyano-6-(3-hexylureido)-N-(p-tolyl)-2,3-dihydro-1H-pyrrolizine-5-carboxamide]
IC50 (MCF-7): 1170 ± 310 nM
Selectivity index, MCF-7 (MCF-7): 2.26
IC50 (A2780): 230 ± 40 nM
Selectivity index, A2780 (A2780): 11.52
IC50 (HT29): 1560 ± 140 nM
Selectivity index, HT29 (HT29): 1.70
IC50 [1]: 2.65 ± 0.29 µM
IC50 ([2]; read-out: Average IC50): 990 nM

SMILES: CCCCCCNC(=O)Nc1c(C#N)c2n(c1C(=O)Nc1ccc(Cl)cc1)CCC2 [Compound 16c, N-(4-Chlorophenyl)-7-cyano-6-(3-hexylureido)-2,3-dihydro-1H-pyrrolizine-5-carboxamide]
IC50 (MCF-7): 34100 ± 4610 nM
Selectivity index, MCF-7 (MCF-7): 0.02
IC50 (A2780): 530 ± 100 nM
Selectivity index, A2780 (A2780): 1.42
IC50 (HT29): 3100 ± 100 nM
Selectivity index, HT29 (HT29): 0.24
IC50 [1]: 0.75 ± 0.14 µM
IC50 ([2]; read-out: Average IC50): 12600 nM

SMILES: N#Cc1c(NC(=S)Nc2cccc3ccccc23)c(C(=O)Nc2ccc(Cl)cc2)n2c1CCC2 [Compound 20c, N-(4-chlorophenyl)-7-cyano-6-(3-(naphthalen-1-yl)thioureido)-2,3-dihydro-1H-pyrrolizine-5-carboxamide]
IC50 (MCF-7): 1760 ± 950 nM
Selectivity index, MCF-7 (MCF-7): 1.66
IC50 (A2780): 2810 ± 980 nM
Selectivity index, A2780 (A2780): 1.04
IC50 (HT29): 3670 ± 1650 nM
Selectivity index, HT29 (HT29): 0.80
IC50 [1]: 2.92 ± 0.6 µM
IC50 ([2]; read-out: Average IC50): 2750 nM

IC50 (CDK-2): 25.5 ± 1.7 nM
SMILES: N#Cc1c(NC(=O)Nc2cccc3ccccc23)c(C(=O)Nc2ccccc2)n2c1CCC2 [Compound 19a, 7-Cyano-6-(3-(naphthalen-1-yl)ureido)-N-phenyl-2,3-dihydro-1H-pyrrolizine-5-carboxamide]
IC50 (MCF-7): 400 ± 420 nM
Selectivity index, MCF-7 (MCF-7): 6.68
IC50 (A2780): 320 ± 170 nM
Selectivity index, A2780 (A2780): 8.34
IC50 (HT29): 200 ± 10 nM
Selectivity index, HT29 (HT29): 13.35
IC50 [1]: 2.67 ± 0.37 µM
IC50 ([2]; read-out: Average IC50): 310 nM
effect on cell cycle (MCF-7 cells [3]): G1 -S cell cycle arrest
number of cells in the G1 cell-cycle phase (MCF-7 cells [3]): 70%

SMILES: N#Cc1c(NC(=O)Nc2ccc(F)cc2)c(C(=O)Nc2ccc(Cl)cc2)n2c1CCC2 [Compound 18c, N-(4-Chlorophenyl)-7-cyano-6-(3-(4-fluorophenyl)ureido)-2,3-dihydro-1H-pyrrolizine-5-carboxamide]
IC50 (MCF-7): 290 ± 190 nM
Selectivity index, MCF-7 (MCF-7): 0.34
IC50 (A2780): 210 ± 100 nM
Selectivity index, A2780 (A2780): 0.48
IC50 (HT29): 1380 ± 20 nM
Selectivity index, HT29 (HT29): 0.07
IC50 [1]: 0.1 ± 0.01 µM
IC50 ([2]; read-out: Average IC50): 630 nM

SMILES: COc1ccc(NC(=O)Nc2c(C#N)c3n(c2C(=O)Nc2ccc(C)cc2)CCC3)cc1 [Compound 17b, 7-Cyano-6-(3-(4-methoxyphenyl)ureido)-N-(p-tolyl)-2,3-dihydro-1H-pyrrolizine-5-carboxamide]
IC50 (MCF-7): 2850 ± 310 nM
Selectivity index, MCF-7 (MCF-7): 2.18
IC50 (A2780): 420 ± 70 nM
Selectivity index, A2780 (A2780): 14.76
IC50 (HT29): 1440 ± 170 nM
Selectivity index, HT29 (HT29): 4.31
IC50 [1]: 6.2 ± 0.88 µM
IC50 ([2]; read-out: Average IC50): 1570 nM

SMILES: CS(=O)(=O)CCNCc1ccc(-c2ccc3ncnc(Nc4ccc(OCc5cccc(F)c5)c(Cl)c4)c3c2)o1 [Lapatinib, lapatinib, reference compound]
IC50 (MCF-7): 6770 ± 1160 nM
Selectivity index, MCF-7 (MCF-7): 1.00
IC50 (A2780): 10500 ± 760 nM
Selectivity index, A2780 (A2780): 0.64
IC50 (HT29): 12500 ± 1270 nM
Selectivity index, HT29 (HT29): 0.54
IC50 [1]: 6.74 ± 1.22 µM
IC50 [2, 5]: 6770 to 12500 nM
IC50 ([2]; read-out: Average IC50): 9920 nM

IC50 (CDK-2): 77.9 ± 2.2 nM
SMILES: N#Cc1c(NC(=S)Nc2cccc3ccccc23)c(C(=O)Nc2ccccc2)n2c1CCC2 [Compound 20a, 7-Cyano-6-(3-(naphthalen-1-yl)thioureido)-N-phenyl-2,3-dihydro-1H-pyrrolizine-5-carboxamide]
IC50 (MCF-7): 420 ± 150 nM
Selectivity index, MCF-7 (MCF-7): 1.02
IC50 (A2780): 160 ± 10 nM
Selectivity index, A2780 (A2780): 2.69
IC50 (HT29): 720 ± 120 nM
Selectivity index, HT29 (HT29): 0.60
IC50 [1]: 0.43 ± 0.13 µM
IC50 ([2]; read-out: Average IC50): 430 nM
apoptotic events (MCF-7 cells [4]; 1 µM): 38%
apoptotic events (MCF-7 cells [4]; 5 µM): 39%
apoptotic events (MCF-7 cells [4]; 10 µM): 47%
effect on cell cycle (MCF-7 cells [3]): G1 -S cell cycle arrest
number of cells in the G1 cell-cycle phase (MCF-7 cells [3]): 57%

SMILES: N#Cc1c(NC(=O)Nc2cccc3ccccc23)c(C(=O)Nc2ccc(Cl)cc2)n2c1CCC2 [Compound 19c, N-(4-Chlorophenyl)-7-cyano-6-(3-(naphthalen-1-yl)ureido)-2,3-dihydro-1H-pyrrolizine-5-carboxamide]
IC50 (MCF-7): 1270 ± 10 nM
Selectivity index, MCF-7 (MCF-7): 2.11
IC50 (A2780): 3070 ± 1500 nM
Selectivity index, A2780 (A2780): 0.87
IC50 (HT29): 2560 ± 700 nM
Selectivity index, HT29 (HT29): 1.05
IC50 [1]: 2.68 ± 0.37 µM
IC50 ([2]; read-out: Average IC50): 2300 nM

IC50 (CDK-2): 115 ± 3.2 nM
SMILES: Cc1ccc(NC(=O)c2c(NC(=O)Nc3ccc(F)cc3)c(C#N)c3n2CCC3)cc1 [Compound 18b, 7-Cyano-6-(3-(4-fluorophenyl)ureido)-N-(p-tolyl)-2,3-dihydro-1H-pyrrolizine-5-carboxamide]
IC50 (MCF-7): 190 ± 20 nM
Selectivity index, MCF-7 (MCF-7): 7.68
IC50 (A2780): 970 ± 140 nM
Selectivity index, A2780 (A2780): 1.51
IC50 (HT29): 9710 ± 2250 nM
Selectivity index, HT29 (HT29): 0.15
IC50 [1]: 1.46 ± 0.42 µM
IC50 ([2]; read-out: Average IC50): 3620 nM
apoptotic events (MCF-7 cells [4]; 1 µM): 20%
effect on cell cycle (MCF-7 cells [3]): G1 -S cell cycle arrest
number of cells in the G1 cell-cycle phase (MCF-7 cells [3]): 53%

Source: publication PMC7594867 (Journal of Enzyme Inhibition and Medicinal Chemistry, 2020)
